Where a name gives a salt, the structure may show the parent alone.
What was measured:
[1] = biological target: T1, human cloned CHRM4 receptor (Homo sapiens, UniProt P08173); experiment: CHRM4 Ca++ Flux Assay (M4_CHO cells, agonist mode); format: cell-based; details: for Emax: Percent Activity (PA), read-out: M4 FDSS PA %; for EC50: geometric mean if tested more than once, read-out: M4 FDSS EC50
T1 construct: expressed in transfected cells; host or cells: CHO-K1 (M4_CHO)
T1 sequence (P08173 1-479): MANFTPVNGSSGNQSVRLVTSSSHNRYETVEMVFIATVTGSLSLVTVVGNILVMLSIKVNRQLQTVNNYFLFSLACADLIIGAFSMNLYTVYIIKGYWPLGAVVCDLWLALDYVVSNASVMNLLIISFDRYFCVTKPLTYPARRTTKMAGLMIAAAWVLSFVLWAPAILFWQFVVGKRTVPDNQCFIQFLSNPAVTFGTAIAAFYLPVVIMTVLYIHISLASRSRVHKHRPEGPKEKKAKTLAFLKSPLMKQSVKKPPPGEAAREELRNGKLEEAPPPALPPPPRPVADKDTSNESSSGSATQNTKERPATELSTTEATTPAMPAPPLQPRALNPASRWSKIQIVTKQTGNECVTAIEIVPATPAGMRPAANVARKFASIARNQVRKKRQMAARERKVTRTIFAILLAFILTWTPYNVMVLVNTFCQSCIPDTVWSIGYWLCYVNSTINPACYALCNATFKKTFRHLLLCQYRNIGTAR
Method in brief: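 Agonist-mode calcium flux in an M4-expressing CHO-K1 line: compounds were dosed at 11 points in triplicate and fluorescence was tracked for 3 min. Cells were preloaded with Ca++ dye and kept in −Ca/−Mg HBSS with 20 μM ATP for 60 min. Efficacy is scaled to carbachol EC100; EC50s come from four-parameter regression, geometric mean across runs.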

[2] = biological target: T2, human cloned CHRM2 receptor (Homo sapiens, UniProt P08172); experiment: CHRM2 Ca++ Flux Assay (M2_CHO cells, agonist mode); format: cell-based; details: M2 CHO cells; for EC50: agonist mode, geometric mean if tested more than once, read-out: M2 FDSS EC50; for Emax: Percent Activity (PA) measured to EC100 of Carbachol, read-out: M2 FDSS PA %
T2 construct: expressed in transfected cells; host or cells: CHO-K1 (M2_CHO)
T2 sequence (P08172 1-466): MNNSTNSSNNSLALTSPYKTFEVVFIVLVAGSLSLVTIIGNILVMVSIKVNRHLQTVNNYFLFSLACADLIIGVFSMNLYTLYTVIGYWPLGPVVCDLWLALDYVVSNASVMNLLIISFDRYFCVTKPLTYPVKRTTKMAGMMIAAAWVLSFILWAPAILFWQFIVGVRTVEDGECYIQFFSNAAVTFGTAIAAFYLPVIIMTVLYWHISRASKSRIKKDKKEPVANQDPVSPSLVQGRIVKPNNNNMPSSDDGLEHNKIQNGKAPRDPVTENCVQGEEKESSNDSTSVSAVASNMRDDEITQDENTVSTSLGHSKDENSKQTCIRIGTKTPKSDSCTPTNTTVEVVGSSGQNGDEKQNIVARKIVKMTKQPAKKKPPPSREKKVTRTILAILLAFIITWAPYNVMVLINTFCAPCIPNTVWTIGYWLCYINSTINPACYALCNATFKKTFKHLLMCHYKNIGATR
Method in brief: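 Agonist activity was expressed as percent of the carbachol EC100 response, fitted by four-parameter regression on triplicate wells, with geometric means across repeat runs. Calcium traces over 3 minutes came from dye-loaded M2_CHO cells (12K/well) pre-incubated 60 min in Ca/Mg-free HBSS with 20 mM HEPES, 2.5 mM probenecid and 20 μM ATP.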

SMILES | Emax [1] [%] | EC50 [1] [nM] | EC50 [2] [nM] | Emax [2] [%]
Fc1ccc(OC[C@@H]2CCOC2)c(C2CCN([C@@H]3COC4(C3)CN(c3nncs3)C4)CC2)c1 [Example 5I, (S)-7-(4-(5-fluoro-2-(((R)-tetrahydrofuran-3-yl)methoxy)phenyl)piperidin-1-yl)-2-(1,3,4-thiadiazol-2-yl)-5-oxa-2-azaspiro[3.4]octane] | 71 | 20 | 545 | 43
Fc1ccc(OC[C@H]2COCCO2)c(C2CCN([C@@H]3COC4(C3)CN(c3nncs3)C4)CC2)c1 [Example 5K, (S)-7-(4-(2-(((R)-1,4-dioxan-2-yl)methoxy)-5-fluorophenyl)piperidin-1-yl)-2-(1,3,4-thiadiazol-2-yl)-5-oxa-2-azaspiro[3.4]octane] | 87 | 31 | 453 | 32
Fc1ccc(OC[C@@H]2COCCO2)c(C2CCN([C@@H]3COC4(C3)CN(c3nncs3)C4)CC2)c1 [Example 5L, (S)-7-(4-(2-(((S)-1,4-dioxan-2-yl)methoxy)-5-fluorophenyl)piperidin-1-yl)-2-(1,3,4-thiadiazol-2-yl)-5-oxa-2-azaspiro[3.4]octane] | 79 | 38 | 456 | 32
Fc1cc(O[C@@H]2CCOC2)c(C2CCN([C@@H]3COC4(C3)CN(c3nncs3)C4)CC2)cc1F [Example 5M, (S)-7-(4-(4,5-difluoro-2-(((R)-tetrahydrofuran-3-yl)oxy)phenyl)piperidin-1-yl)-2-(1,3,4-thiadiazol-2-yl)-5-oxa-2-azaspiro[3.4]octane] | 73 | 58 | 415 | 34
COC(C)(C)CCOc1ccc(F)cc1C1CCN([C@@H]2COC3(C2)CN(c2nncs2)C3)CC1 [Example 5N, (S)-7-(4-(5-fluoro-2-(3-methoxy-3-methylbutoxy)phenyl)piperidin-1-yl)-2-(1,3,4-thiadiazol-2-yl)-5-oxa-2-azaspiro[3.4]octane] | 61 | 68 | > 25000 | 38
CC(C)(O)CCOc1ccc(F)cc1C1CCN([C@@H]2COC3(C2)CN(c2nncs2)C3)CC1 [Example 5P, (S)-4-(2-(1-(2-(1,3,4-thiadiazol-2-yl)-5-oxa-2-azaspiro[3.4]octan-7-yl)piperidin-4-yl)-4-fluorophenoxy)-2-methylbutan-2-ol] | 58 | 86 | 9700 | 25

The next lines start with the values.

Emax [1] [%] | EC50 [1] [nM] | EC50 [2] [nM] | Emax [2] [%] | SMILES
99 | 15 | 443 | 40 | Fc1ccc(O[C@@H]2CCOC2)c(C2CCN([C@@H]3COC4(C3)CN(c3nncs3)C4)CC2)c1 [Example 5H, (S)-7-(4-(5-fluoro-2-(((R)-tetrahydrofuran-3-yl)oxy)phenyl)piperidin-1-yl)-2-(1,3,4-thiadiazol-2-yl)-5-oxa-2-azaspiro[3.4]octane]
92 | 29 | 4750 | 46 | Fc1ccc(OC2CCOCC2)c(C2CCN([C@@H]3COC4(C3)CN(c3nncs3)C4)CC2)c1 [Example 5J, (S)-7-(4-(5-fluoro-2-((tetrahydro-2H-pyran-4-yl)oxy)phenyl)piperidin-1-yl)-2-(1,3,4-thiadiazol-2-yl)-5-oxa-2-azaspiro[3.4]octane]
74 | 71 | 1170 | 33 | Fc1ccc(O[C@H]2CCOC2)c(C2CCN([C@@H]3COC4(C3)CN(c3nncs3)C4)CC2)c1 [Example 5O, (S)-7-(4-(5-fluoro-2-(((S)-tetrahydrofuran-3-yl)oxy)phenyl)piperidin-1-yl)-2-(1,3,4-thiadiazol-2-yl)-5-oxa-2-azaspiro[3.4]octane]
83 | 92 | > 25000 | 0 | c1ccc(C2CCN([C@@H]3COC4(C3)CN(c3nncs3)C4)CC2)c(OC2COC2)c1 [Example 5Q, (S)-7-(4-(2-(oxetan-3-yloxy)phenyl)piperidin-1-yl)-2-(1,3,4-thiadiazol-2-yl)-5-oxa-2-azaspiro[3.4]octane formate salt]
